Earlier results, collected in patent US11564931B2, “Low benzalkonium chloride bimatoprost ophthalmic compositions with effective penetration and preservation properties” (Somerset Therapeutics LLC, priority 2019, dated 2023).

Conditions: patients starting on monotherapy; Covert D et al. 2006

Compound	Rate of adjunctive medication use
CCNC(=O)CCC/C=C\C[C@@H]1[C@@H](/C=C/[C@@H](O)CCc2ccccc2)[C@H](O)C[C@@H]1O [bimatoprost, (Z)-7-[(1R, 2R, 3R, 5S)-3,5-Dihydroxy-2-[(1E, 3S)-3-hydroxy-5-phenyl-1-pentenyl]cyclopentyl]-5-N-ethylheptenamide]	23.2%
CC(C)OC(=O)CCC/C=C\C[C@@H]1[C@@H](CC[C@@H](O)CCc2ccccc2)[C@H](O)C[C@@H]1O [latanoprost]	30.2%
CC(C)OC(=O)CCC/C=C\C[C@@H]1[C@@H](/C=C/[C@@H](O)COc2cccc(C(F)(F)F)c2)[C@H](O)C[C@@H]1O [travoprost]	22.5%
